Reference: patent US4061776A, “Pharmaceutically active 2-omega-aminoalkoxydiphenyl ethers” (Mitsubishi Chemical Industries Ltd., priority 1976, dated 1977)
Where a name gives a salt, the structure may show the parent alone.

What was measured:
[1] = tested on: reserpine induced hypothermia; experiment: antagonism of reserpine (5 mg/kg i.p.) induced hypothermia (antireserpine/antidepressant activity) in mice; type: in vivo; settings: for Antireserpine Activity in Mice, Relative Potency: reserpine 5 mg/kg i.p., Amitriptyline = 1; for antidepressant activity (in words): reserpine hypothermia
Experimental: (§1) The compounds were administered intraperitoneally and activities of the compounds were compared with those of Amitriptyline.

in vivo = settings: mouse, ip
tremorine induced tremor [2] = experiment: central anticholinergic effect, tremorine induced tremor in mice; settings: Mus musculus, ip, read-out: Antitremorine Effect ED50
Experimental: as §1

[3] = tested on: neurological deficit as measured by traction test; experiment: CNS depressant activity, neurological deficit by traction test (muscle relaxant action) in mice; settings: Mus musculus, ip, read-out: Muscle Relaxant Action ED50
Experimental: as §1

[4] = tested on: electroshock induced tonic extensor; experiment: anticonvulsant activity, antagonism of electroshock induced tonic extensor in mice; type: in vivo; settings: Mus musculus, ip, dose preventing 50% of response, read-out: Anti-Convulsant Activity ED50
Experimental: as §1

mice = settings: i.p.
[5] = tested on: spontaneous motor activity; experiment: CNS depressant activity, spontaneous motor activity measured by ANIMEX apparatus in mice; settings: Mus musculus, ip, read-out: Spontaneous Motor Activity Depression ED50
Experimental: as §1

tremorine induced tremor [6] = settings: mouse, in vivo, ip
Experimental: as §1

[7] = tested on: neurological deficit as measured by traction test; settings: mouse, in vivo, ip
Experimental: as §1

Structure (SMILES)	Antireserpine Activity in Mice, Relative Potency [1]	antidepressant activity (in words) [1]	LD50 (in vivo)	other results
NCCCCOc1ccccc1Oc1ccccc1 [2-(4-aminobutoxy)diphenyl ether hydrochloride]	0.28	–	–	–
CN(C)CCCCOc1ccccc1Oc1ccccc1 [2-(4-dimethylaminobutoxy)diphenyl ether hydrochloride]	0.58	best activity of all compounds of the present invention tested	92 mg/kg	–
CNCCCCOc1ccccc1Oc1ccccc1 [2-(4-methylaminobutoxy)diphenyl ether hydrochloride]	1.10	best activity of all compounds of the present invention tested	100 mg/kg	ED50 (tremorine induced tremor [2]): 30 mg/kg; ED50 [3]: 60 mg/kg; ED50 [4]: 32 mg/kg; toxicity (in words) (mice): low toxicity; antireserpine activity compared with Amitriptyline (in words) ([1]; versus Amitriptyline): comparable to that of Amitriptyline; ED50 [5]: 60 mg/kg; anticholinergic action (in words) (tremorine induced tremor [6]): weak; CNS depressant action (in words) [7]: weak
CNCCCCCOc1ccccc1Oc1ccccc1 [2-(5-methylaminopentyloxy)diphenyl ether hydrochloride]	0.57	best activity of all compounds of the present invention tested	85 mg/kg	–
CN(C)CCC=C1c2ccccc2CCc2ccccc21 [Amitriptyline, reference compound]	–	–	–	LD50 (mice; Litchfield-Wilcoxon method): 65 mg/kg i.p.
CNCCCOc1ccccc1Oc1ccccc1 [2-(3-methylaminopropoxy)diphenyl ether hydrochloride, reference compound]	0.28	–	–	–
c1ccc(Oc2ccccc2OCCCCN2CCOCC2)cc1 [2-(4-morpholinobutoxy)diphenyl ether hydrochloride, reference compound]	0.21	–	–	–
CN(C)CCCCCOc1ccccc1Oc1ccccc1 [2-(5-dimethylaminopentyloxy)diphenyl ether hydrochloride]	0.24	–	–	–
CN(C)CCCOc1ccccc1Oc1ccccc1 [2-(3-dimethylaminopropoxy)diphenyl ether hydrochloride, reference compound]	0.14	–	–	–
